Here are results for seven molecules from PubChem BioAssay AID252 (DTP/NCI, 2004).

Molecules are shown by their SMILES. Several values for one entry are separate records, joined by “and”; a condition that tells them apart may be missing. Equal entries are not always repeated. Inconclusive results and toxic doses are left out.

The test deals with BDF1 mice, intracerebral L1210 leukemia, survival T/C. Kind of test: NCI In Vivo Anticancer Drug Screen. Data for tumor model L1210 Leukemia (intracerebral) in B6D2F1 (BDF1) mice. The settings on record: higher = longer survival. An outline of the steps:
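Mice carrying transplanted tumour were dosed with compound; survival was recorded and expressed as treated-group value (T) divided by vehicle-control value (C).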

Take `CS(C)=O`: the T/C (endpoint: mean survival time, dose: 0.5 mg/kg/injection, schedule: Q#C X009 (adlb), vehicle: water) is 102 % of control; the T/C (endpoint: mean survival time, dose: 1.0 mg/kg/injection, schedule: Q#C X009 (adlb), vehicle: water) was 102 % of control; the T/C (endpoint: mean survival time, dose: 2.0 mg/kg/injection, schedule: Q#C X009 (adlb), vehicle: water) is 101 % of control; the T/C (endpoint: mean survival time, dose: 4.0 mg/kg/injection, schedule: Q#C X009 (adlb), vehicle: water) is 101 % of control; the T/C (endpoint: mean survival time, dose: 8.0 mg/kg/injection, schedule: Q#C X009 (adlb), vehicle: water) is 98 % of control; the T/C (endpoint: mean survival time, dose: 10.0 mg/kg/injection, schedule: Q01DX001 (ip), vehicle: DMSO) was 110 % of control. Moreover, the T/C reads like this: (endpoint: mean survival time, dose: 25.0 mg/kg/injection, schedule: Q01DX001 (ip), vehicle: DMSO) 101 % of control; (endpoint: mean survival time, dose: 35.0 mg/kg/injection, schedule: Q01DX001 (ip), vehicle: DMSO) 101 % of control; (endpoint: mean survival time, dose: 50.0 mg/kg/injection, schedule: Q01DX001 (ip), vehicle: DMSO) 101 % of control; (endpoint: mean survival time, dose: 0.5 % drug in feed or water or air, schedule: Q#C X009 (oral), vehicle: other) 102 % of control; (endpoint: mean survival time, dose: 1.0 % drug in feed or water or air, schedule: Q#C X009 (oral), vehicle: other) 102 % of control; (endpoint: mean survival time, dose: 1.0 grams/kg/injection, schedule: Q01DX001 (ip), vehicle: Klucel (hydroxypropylcellulose) (HPC)) 110 % of control. The T/C is 101 % of control (endpoint: mean survival time, dose: 2.0 % drug in feed or water or air, schedule: Q#C X009 (oral), vehicle: other); 101 % of control (endpoint: mean survival time, dose: 2.1 grams/kg/injection, schedule: Q01DX001 (ip), vehicle: Klucel (hydroxypropylcellulose) (HPC)); 101 % of control (endpoint: mean survival time, dose: 4.0 % drug in feed or water or air, schedule: Q#C X009 (oral), vehicle: other); 98 % of control (endpoint: mean survival time, dose: 8.0 % drug in feed or water or air, schedule: Q#C X009 (oral), vehicle: other); 103 % of control and 118 % of control (endpoint: median survival time, dose: 1.0 mg/kg/injection, schedule: Q#C X009 (oral), vehicle: water); 101 % of control (2×) and 105 % of control (endpoint: median survival time, dose: 2.0 mg/kg/injection, schedule: Q#C X009 (oral), vehicle: water). Moreover, the T/C is 103 % of control and 107 % of control and 98 % of control (endpoint: median survival time, dose: 4.0 mg/kg/injection, schedule: Q#C X009 (oral), vehicle: water); 101 % of control and 83 % of control and 97 % of control (endpoint: median survival time, dose: 8.0 mg/kg/injection, schedule: Q#C X009 (oral), vehicle: water).
On to `COc1cccc2c1C(=O)c1c(O)c3c(c(O)c1C2=O)C[C@@](O)(C(C)=O)C[C@@H]3OC1CC(N)C(O)C(C)O1` (some centres not stated), for which the T/C reads like this: (endpoint: mean survival time, dose: 1.08 mg/kg/injection, schedule: Q04DX003 (ip), vehicle: water) 101 % of control; (endpoint: mean survival time, dose: 1.8 mg/kg/injection, schedule: Q04DX003 (ip), vehicle: water) 101 % of control; (endpoint: mean survival time, dose: 3.0 mg/kg/injection, schedule: Q04DX003 (ip), vehicle: water) 97 % of control; (endpoint: mean survival time, dose: 3.12 mg/kg/injection, schedule: Q01DX001 (ip), vehicle: water) 102 % of control; (endpoint: mean survival time, dose: 5.0 mg/kg/injection, schedule: Q04DX003 (ip), vehicle: water) 102 % of control; (endpoint: mean survival time, dose: 6.25 mg/kg/injection, schedule: Q01DX001 (ip), vehicle: water) 97 % of control. The T/C is, setting by setting: (endpoint: mean survival time, dose: 12.5 mg/kg/injection, schedule: Q01DX001 (ip), vehicle: water) 91 % of control; (endpoint: mean survival time, dose: 25.0 mg/kg/injection, schedule: Q01DX001 (ip), vehicle: water) 96 % of control; (endpoint: median survival time, dose: 1.08 mg/kg/injection, schedule: Q04DX003 (ip), vehicle: water) 97 % of control; (endpoint: median survival time, dose: 1.8 mg/kg/injection, schedule: Q04DX003 (ip), vehicle: water) 96 % of control; (endpoint: median survival time, dose: 3.0 mg/kg/injection, schedule: Q04DX003 (ip), vehicle: water) 96 % of control; (endpoint: median survival time, dose: 5.0 mg/kg/injection, schedule: Q04DX003 (ip), vehicle: water) 96 % of control. Moreover, for the setting “endpoint: median survival time, dose: 8.4 mg/kg/injection, schedule: Q04DX003 (ip), vehicle: water”, the T/C was 95 % of control.
Regarding `O=NN(CCCl)C(=O)Nc1ccc(C(=O)O)cc1`, the T/C runs as follows: (endpoint: mean survival time, dose: 2.5 mg/kg/injection, schedule: Q01DX001 (ip), vehicle: carboxymethylcellulose (CMC)) 101 % of control; (endpoint: mean survival time, dose: 3.7 mg/kg/injection, schedule: Q01DX001 (ip), vehicle: carboxymethylcellulose (CMC)) 97 % of control; (endpoint: mean survival time, dose: 5.0 mg/kg/injection, schedule: Q01DX001 (ip), vehicle: carboxymethylcellulose (CMC)) 106 % of control; (endpoint: mean survival time, dose: 6.0 mg/kg/injection, schedule: Q01DX001 (ip), vehicle: carboxymethylcellulose (CMC)) 100 % of control; (endpoint: mean survival time, dose: 7.5 mg/kg/injection, schedule: Q01DX001 (ip), vehicle: carboxymethylcellulose (CMC)) 101 % of control; (endpoint: mean survival time, dose: 8.0 mg/kg/injection, schedule: Q01DX001 (ip), vehicle: carboxymethylcellulose (CMC)) 106 % of control. Besides, the T/C reads like this: (endpoint: mean survival time, dose: 12.0 mg/kg/injection, schedule: Q01DX001 (ip), vehicle: carboxymethylcellulose (CMC)) 108 % of control; (endpoint: mean survival time, dose: 18.0 mg/kg/injection, schedule: Q01DX001 (ip), vehicle: carboxymethylcellulose (CMC)) 104 % of control.
Regarding `O=NN(CCCl)C(=O)N[C@@H]1CCCC[C@H]1O`, the T/C was 350 % of control (endpoint: mean survival time, dose: 12.0 mg/kg/injection, schedule: Q01DX001 (ip), vehicle: saline with Tween-80); 463 % of control (endpoint: mean survival time, dose: 18.0 mg/kg/injection, schedule: Q01DX001 (ip), vehicle: saline with Tween-80); 175 % of control (endpoint: mean survival time, dose: 26.0 mg/kg/injection, schedule: Q01DX001 (ip), vehicle: saline with Tween-80).
Take `CCn1cnc2c(SC3CCCC3)ncnc21`: the T/C was 118 % of control (endpoint: mean survival time, dose: 30.0 mg/kg/injection, schedule: Q01DX015 (ip), vehicle: carboxymethylcellulose (CMC)); 124 % of control (endpoint: mean survival time, dose: 62.0 mg/kg/injection, schedule: Q01DX015 (ip), vehicle: carboxymethylcellulose (CMC)); 118 % of control (endpoint: mean survival time, dose: 62.0 mg/kg/injection, schedule: Q01DX Z (ip), vehicle: carboxymethylcellulose (CMC)); 106 % of control (endpoint: mean survival time, dose: 125.0 mg/kg/injection, schedule: Q01DX001 (ip), vehicle: carboxymethylcellulose (CMC)); 123 % of control (endpoint: mean survival time, dose: 125.0 mg/kg/injection, schedule: Q01DX015 (ip), vehicle: carboxymethylcellulose (CMC)); 103 % of control (endpoint: mean survival time, dose: 200.0 mg/kg/injection, schedule: Q01DX009 (ip), vehicle: carboxymethylcellulose (CMC)). Moreover, the T/C is, setting by setting: (endpoint: mean survival time, dose: 250.0 mg/kg/injection, schedule: Q01DX001 (ip), vehicle: carboxymethylcellulose (CMC)) 112 % of control; (endpoint: mean survival time, dose: 250.0 mg/kg/injection, schedule: Q01DX Z (ip), vehicle: carboxymethylcellulose (CMC)) 164 % of control; (endpoint: mean survival time, dose: 375.0 mg/kg/injection, schedule: Q01DX015 (ip), vehicle: carboxymethylcellulose (CMC)) 169 % of control; (endpoint: mean survival time, dose: 400.0 mg/kg/injection, schedule: Q01DX009 (ip), vehicle: carboxymethylcellulose (CMC)) 200 % of control; (endpoint: mean survival time, dose: 500.0 mg/kg/injection, schedule: Q01DX001 (ip), vehicle: carboxymethylcellulose (CMC)) 108 % of control; (endpoint: mean survival time, dose: 500.0 mg/kg/injection, schedule: Q01DX Z (ip), vehicle: carboxymethylcellulose (CMC)) 98 % of control. Further, the T/C (endpoint: mean survival time, dose: 1000.0 mg/kg/injection, schedule: Q01DX001 (ip), vehicle: carboxymethylcellulose (CMC)) was 120 % of control.
As to `CCOC(=O)C1(NC(=O)N(CCCl)N=O)CCCCC1`, the T/C is 110 % of control (endpoint: mean survival time, dose: 62.0 mg/kg/injection, schedule: Q01DX001 (ip), vehicle: other); 192 % of control and 200 % of control (endpoint: mean survival time, dose: 250.0 mg/kg/injection, schedule: Q01DX001 (ip), vehicle: other); 190 % of control and 196 % of control (endpoint: mean survival time, dose: 500.0 mg/kg/injection, schedule: Q01DX001 (ip), vehicle: other); 215 % of control (endpoint: mean survival time, dose: 750.0 mg/kg/injection, schedule: Q01DX001 (ip), vehicle: other); 156 % of control (endpoint: mean survival time, dose: 1000.0 mg/kg/injection, schedule: Q01DX001 (ip), vehicle: other).
Consider `N#[N+]c1cnc([O-])[nH]c1=O`, for which the T/C runs as follows: (endpoint: mean survival time, dose: 5.0 mg/kg/injection, schedule: Q01DX015 (ip), vehicle: alkali diluted with saline) 102 % of control; (endpoint: mean survival time, dose: 7.7 mg/kg/injection, schedule: Q01DX015 (ip), vehicle: alkali diluted with saline) 101 % of control; (endpoint: mean survival time, dose: 11.5 mg/kg/injection, schedule: Q01DX015 (ip), vehicle: alkali diluted with saline) 106 % of control; (endpoint: mean survival time, dose: 12.0 mg/kg/injection, schedule: Q01DX001 (ip), vehicle: alkali diluted with saline) 97 % of control; (endpoint: mean survival time, dose: 15.0 mg/kg/injection, schedule: Q01DX Z (ip), vehicle: alkali diluted with saline) 101 % of control; (endpoint: mean survival time, dose: 19.0 mg/kg/injection, schedule: Q01DX001 (ip), vehicle: alkali diluted with saline) 102 % of control. Also, the T/C is, setting by setting: (endpoint: mean survival time, dose: 20.0 mg/kg/injection, schedule: Q01DX Z (ip), vehicle: alkali diluted with saline) 97 % of control; (endpoint: mean survival time, dose: 25.0 mg/kg/injection, schedule: Q01DX Z (ip), vehicle: alkali diluted with saline) 92 % of control; (endpoint: mean survival time, dose: 29.0 mg/kg/injection, schedule: Q01DX001 (ip), vehicle: alkali diluted with saline) 106 % of control; (endpoint: mean survival time, dose: 40.0 mg/kg/injection, schedule: Q01DX Z (ip), vehicle: alkali diluted with saline) 91 % of control.
